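In this assay, cells in 96-well plates receive the compound at five concentrations for 48 hours. Endpoints are linearly interpolated between the surrounding concentrations. TGI: total growth inhibition.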
Experiments:
Experiment in all cases: DTP human tumour cell line panel, 48 h
NCI-H226 lung = test system: NCI-H226 lung
SNB-78 CNS = test system: SNB-78 CNS
786-0 renal = test system: 786-0 renal
NCI-H23 lung = test system: NCI-H23 lung
CCRF-CEM leukemia = test system: CCRF-CEM leukemia
XF 498 CNS = test system: XF 498 CNS
HOP-62 NSCLC = test system: HOP-62 NSCLC
LXFL 529 NSCLC = test system: LXFL 529 NSCLC
HOP-92 NSCLC = test system: HOP-92 NSCLC
KM20L2 colon = test system: KM20L2 colon
NCI-H460 lung = test system: NCI-H460 lung
MALME-3M melanoma = test system: MALME-3M melanoma
EKVX NSCLC = test system: EKVX NSCLC
SNB-75 CNS = test system: SNB-75 CNS
TK-10 renal = test system: TK-10 renal
A498 renal = test system: A498 renal
SF-539 CNS = test system: SF-539 CNS
CAKI-1 renal = test system: CAKI-1 renal
ACHN renal = test system: ACHN renal
SK-MEL-2 melanoma = test system: SK-MEL-2 melanoma
U251 CNS = test system: U251 CNS
COLO 205 colon = test system: COLO 205 colon
SN12C renal = test system: SN12C renal
RXF-631 renal = test system: RXF-631 renal
HCT-15 colon = test system: HCT-15 colon
UACC-257 melanoma = test system: UACC-257 melanoma
OVCAR-5 ovarian = test system: OVCAR-5 ovarian
MOLT-4 leukemia = test system: MOLT-4 leukemia
K-562 leukemia = test system: K-562 leukemia
SF-295 CNS = test system: SF-295 CNS
M19-MEL melanoma = test system: M19-MEL melanoma
SK-OV-3 ovarian = test system: SK-OV-3 ovarian
DLD-1 colon = test system: DLD-1 colon
M14 melanoma = test system: M14 melanoma
DMS 273 small cell lung = test system: DMS 273 small cell lung
SNB-19 CNS = test system: SNB-19 CNS
NCI-H522 lung = test system: NCI-H522 lung
OVCAR-4 ovarian = test system: OVCAR-4 ovarian
A549 NSCLC = test system: A549 NSCLC
OVCAR-8 ovarian = test system: OVCAR-8 ovarian
HCC-2998 colon = test system: HCC-2998 colon
HL-60(TB) leukemia = test system: HL-60(TB) leukemia
UO-31 renal = test system: UO-31 renal
UACC-62 melanoma = test system: UACC-62 melanoma
LOX IMVI melanoma = test system: LOX IMVI melanoma
IGROV1 ovarian = test system: IGROV1 ovarian
DMS 114 small cell lung = test system: DMS 114 small cell lung
HT29 colon = test system: HT29 colon
RXF 393 renal = test system: RXF 393 renal
SK-MEL-28 melanoma = test system: SK-MEL-28 melanoma
HCT-116 colon = test system: HCT-116 colon
RPMI-8226 leukemia = test system: RPMI-8226 leukemia
SK-MEL-5 melanoma = test system: SK-MEL-5 melanoma
KM12 colon = test system: KM12 colon
HOP-18 NSCLC = test system: HOP-18 NSCLC
OVCAR-3 ovarian = test system: OVCAR-3 ovarian
SW-620 colon = test system: SW-620 colon
SF-268 CNS = test system: SF-268 CNS

In the case of `CC(=O)Nc1ccccc1S(=O)(=O)c1ccccc1`, the TGI (NCI-H226 lung) is reported as over 100 µM, the TGI (SNB-78 CNS) is reported as over 100 µM and the TGI (786-0 renal) is reported as over 100 µM. It also gave a TGI (NCI-H23 lung) of over 100 µM, a TGI (CCRF-CEM leukemia) of over 100 µM and a TGI (XF 498 CNS) of over 100 µM. For the same compound, the TGI (HOP-62 NSCLC) was over 100 µM, the TGI (LXFL 529 NSCLC) was over 100 µM and the TGI (HOP-92 NSCLC) was over 100 µM. The TGI (KM20L2 colon) was over 100 µM, the TGI (NCI-H460 lung) was over 100 µM and the TGI (MALME-3M melanoma) was over 100 µM. The TGI (EKVX NSCLC) was over 100 µM, the TGI (SNB-75 CNS) was over 100 µM and the TGI (TK-10 renal) was over 100 µM. It also gave a TGI (A498 renal) of over 100 µM, a TGI (SF-539 CNS) of over 100 µM and a TGI (CAKI-1 renal) of over 100 µM. For the same compound, the TGI (ACHN renal) was over 100 µM, the TGI (SK-MEL-2 melanoma) was over 100 µM and the TGI (U251 CNS) was over 100 µM. For the same compound, the TGI (COLO 205 colon) was over 100 µM, the TGI (SN12C renal) was over 100 µM and the TGI (RXF-631 renal) was over 100 µM. The TGI (HCT-15 colon) was over 100 µM, the TGI (UACC-257 melanoma) was over 100 µM and the TGI (OVCAR-5 ovarian) was 5.65 µM. For the same compound, the TGI (MOLT-4 leukemia) was over 100 µM, the TGI (K-562 leukemia) was over 100 µM and the TGI (SF-295 CNS) was over 100 µM. For the same compound, the TGI (M19-MEL melanoma) was over 100 µM, the TGI (SK-OV-3 ovarian) was over 100 µM and the TGI (DLD-1 colon) was over 100 µM. It also gave a TGI (M14 melanoma) of over 100 µM, a TGI (DMS 273 small cell lung) of over 100 µM and a TGI (SNB-19 CNS) of over 100 µM. It also gave a TGI (NCI-H522 lung) of over 100 µM, a TGI (OVCAR-4 ovarian) of over 100 µM and a TGI (A549 NSCLC) of over 100 µM. For the same compound, the TGI (OVCAR-8 ovarian) was over 100 µM, the TGI (HCC-2998 colon) was over 100 µM and the TGI (HL-60(TB) leukemia) was over 100 µM. It also gave a TGI (UO-31 renal) of over 100 µM, a TGI (UACC-62 melanoma) of over 100 µM and a TGI (LOX IMVI melanoma) of over 100 µM. It also gave a TGI (IGROV1 ovarian) of over 100 µM, a TGI (DMS 114 small cell lung) of over 100 µM and a TGI (HT29 colon) of over 100 µM. It also gave a TGI (RXF 393 renal) of over 100 µM, a TGI (SK-MEL-28 melanoma) of over 100 µM and a TGI (HCT-116 colon) of over 100 µM. The TGI (RPMI-8226 leukemia) was over 100 µM, the TGI (SK-MEL-5 melanoma) was over 100 µM and the TGI (KM12 colon) was over 100 µM. For the same compound, the TGI (HOP-18 NSCLC) was over 100 µM, the TGI (OVCAR-3 ovarian) was over 100 µM and the TGI (SW-620 colon) was over 100 µM. For the same compound, the TGI (SF-268 CNS) was over 100 µM.

With `Cc1nc2c(o1)C(=Nc1ccccc1)c1ccccc1C2=Nc1ccccc1` the TGI (SNB-78 CNS) was over 100 µM, the TGI (786-0 renal) was over 100 µM and the TGI (NCI-H23 lung) was over 100 µM. For the same compound, the TGI (CCRF-CEM leukemia) was over 100 µM, the TGI (XF 498 CNS) was over 100 µM and the TGI (HOP-62 NSCLC) was over 100 µM. The TGI (LXFL 529 NSCLC) was over 100 µM, the TGI (HOP-92 NSCLC) was over 100 µM and the TGI (KM20L2 colon) was over 100 µM. It also gave a TGI (NCI-H460 lung) of over 100 µM, a TGI (MALME-3M melanoma) of over 100 µM and a TGI (EKVX NSCLC) of over 100 µM. It also gave a TGI (SNB-75 CNS) of over 100 µM, a TGI (TK-10 renal) of over 100 µM and a TGI (A498 renal) of over 100 µM. It also gave a TGI (SF-539 CNS) of over 100 µM, a TGI (CAKI-1 renal) of over 100 µM and a TGI (ACHN renal) of over 100 µM. The TGI (SK-MEL-2 melanoma) was over 100 µM, the TGI (U251 CNS) was over 100 µM and the TGI (COLO 205 colon) was over 100 µM. It also gave a TGI (SN12C renal) of over 100 µM, a TGI (RXF-631 renal) of over 100 µM and a TGI (HCT-15 colon) of 32 µM. For the same compound, the TGI (UACC-257 melanoma) was over 100 µM, the TGI (OVCAR-5 ovarian) was over 100 µM and the TGI (MOLT-4 leukemia) was over 100 µM. The TGI (K-562 leukemia) was over 100 µM, the TGI (SF-295 CNS) was over 100 µM and the TGI (M19-MEL melanoma) was over 100 µM. For the same compound, the TGI (SK-OV-3 ovarian) was over 100 µM, the TGI (DLD-1 colon) was over 100 µM and the TGI (M14 melanoma) was over 100 µM. The TGI (DMS 273 small cell lung) was over 100 µM, the TGI (SNB-19 CNS) was over 100 µM and the TGI (NCI-H522 lung) was over 100 µM. The TGI (OVCAR-4 ovarian) was over 100 µM, the TGI (A549 NSCLC) was over 100 µM and the TGI (OVCAR-8 ovarian) was over 100 µM. The TGI (HCC-2998 colon) was over 100 µM, the TGI (HL-60(TB) leukemia) was over 100 µM and the TGI (UO-31 renal) was over 100 µM. For the same compound, the TGI (UACC-62 melanoma) was over 100 µM, the TGI (LOX IMVI melanoma) was over 100 µM and the TGI (IGROV1 ovarian) was over 100 µM. For the same compound, the TGI (DMS 114 small cell lung) was over 100 µM, the TGI (HT29 colon) was over 100 µM and the TGI (RXF 393 renal) was over 100 µM. The TGI (HCT-116 colon) was over 100 µM, the TGI (RPMI-8226 leukemia) was over 100 µM and the TGI (SK-MEL-5 melanoma) was over 100 µM. It also gave a TGI (KM12 colon) of over 100 µM, a TGI (HOP-18 NSCLC) of over 100 µM and a TGI (OVCAR-3 ovarian) of over 100 µM. The TGI (SW-620 colon) was 41.3 µM and the TGI (SF-268 CNS) was over 100 µM.

Source: PubChem BioAssay (NCI)
